# Toxic doses and inconclusive results are not listed.
# System: L1210 leukemia ip in BDF1 mice, survival T/C
# Assay: NCI In Vivo Anticancer Drug Screen. Data for tumor model L1210 Leukemia (intraperitoneal) in B6D2F1 (BDF1) mice
# Conditions: endpoint: mean survival time, higher = longer survival
# Method in brief: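 Transplanted-tumor mice were given test agent; controls received vehicle only. Survival readings from the two groups were divided (treated over control).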
# [1] = dose: 100.0 mg/kg/injection, schedule: Q01DX001 (ip), vehicle: saline
# [2] = dose: 200.0 mg/kg/injection, schedule: Q01DX001 (ip), vehicle: saline
compound,measurement,setting,value
[N-]=[N+]=CC(=O)CCC(N)C(=O)O (stereo not drawn),T/C,"dose: 0.01 mg/kg/injection, schedule: Q01DX015 (ip), vehicle: water",101 % of control
same,T/C,"dose: 0.03 mg/kg/injection, schedule: Q01DX015 (ip), vehicle: water",118 % of control
same,T/C,"dose: 0.05 mg/kg/injection, schedule: Q01DX009 (ip), vehicle: saline",118 % of control
same,T/C,"dose: 0.06 mg/kg/injection, schedule: Q01DX009 (oral), vehicle: saline",114 % of control
same,T/C,"dose: 0.1 mg/kg/injection, schedule: Q01DX015 (ip), vehicle: other",168 % of control
same,T/C,"dose: 0.1 mg/kg/injection, schedule: Q01DX015 (ip), vehicle: water",154 % of control
same,T/C,"dose: 0.2 mg/kg/injection, schedule: Q01DX009 (ip), vehicle: saline",120 % of control
same,T/C,"dose: 0.2 mg/kg/injection, schedule: Q01DX009 (oral), vehicle: saline",150 % of control
same,T/C,"dose: 0.2 mg/kg/injection, schedule: Q01DX015 (ip), vehicle: other",210 % of control
same,T/C,"dose: 0.2 mg/kg/injection, schedule: Q01DX015 (ip), vehicle: water",156 % of control
same,T/C,"dose: 0.25 mg/kg/injection, schedule: Q01DX009 (oral), vehicle: saline",164 % of control
same,T/C,"dose: 0.39 mg/kg/injection, schedule: Q03HX016 (ip), vehicle: saline",150 % of control
same,T/C,"dose: 0.39 mg/kg/injection, schedule: Q03HX024 (ip), vehicle: saline",184 % of control
same,T/C,"dose: 0.4 mg/kg/injection, schedule: Q01DX009 (ip), vehicle: saline",104 % of control
same,T/C,"dose: 0.4 mg/kg/injection, schedule: Q01DX015 (ip), vehicle: water",218 % of control
same,T/C,"dose: 0.4 mg/kg/injection, schedule: Q02DX005 (oral), vehicle: saline",162 % of control
same,T/C,"dose: 0.6 mg/kg/injection, schedule: Q01DX015 (ip), vehicle: water",168 % of control
same,T/C,"dose: 0.63 mg/kg/injection, schedule: Q02DX008 (ip), vehicle: water",156 % of control
same,T/C,"dose: 0.78 mg/kg/injection, schedule: Q03HX016 (ip), vehicle: saline",165 % of control
same,T/C,"dose: 0.78 mg/kg/injection, schedule: Q03HX024 (ip), vehicle: saline",194 % of control
same,T/C,"dose: 0.8 mg/kg/injection, schedule: Q02DX005 (oral), vehicle: saline",150 % of control
same,T/C,"dose: 1.25 mg/kg/injection, schedule: Q02DX008 (ip), vehicle: water",180 % of control
same,T/C,"dose: 1.25 mg/kg/injection, schedule: Q02DX008 (oral), vehicle: water",162 % of control
same,T/C,"dose: 1.56 mg/kg/injection, schedule: Q03HX016 (ip), vehicle: saline",160 % of control
same,T/C,"dose: 1.56 mg/kg/injection, schedule: Q03HX024 (ip), vehicle: saline",174 % of control
same,T/C,"dose: 1.6 mg/kg/injection, schedule: Q02DX005 (oral), vehicle: saline",167 % of control
same,T/C,"dose: 2.5 mg/kg/injection, schedule: Q02DX008 (ip), vehicle: other",187 % of control
same,T/C,"dose: 2.5 mg/kg/injection, schedule: Q02DX008 (oral), vehicle: other",156 % of control
same,T/C,"dose: 2.5 mg/kg/injection, schedule: Q02DX008 (oral), vehicle: water",205 % of control
same,T/C,"dose: 3.12 mg/kg/injection, schedule: Q03HX024 (ip), vehicle: saline",90 % of control
same,T/C,"dose: 3.12 mg/kg/injection, schedule: Q04DX003 (ip), vehicle: saline",150 % of control
same,T/C,"dose: 3.2 mg/kg/injection, schedule: Q02DX005 (oral), vehicle: saline",153 % of control
same,T/C,"dose: 5.0 mg/kg/injection, schedule: Q02DX008 (ip), vehicle: other",216 % of control
same,T/C,"dose: 5.0 mg/kg/injection, schedule: Q02DX008 (oral), vehicle: other",169 % of control
same,T/C,"dose: 6.25 mg/kg/injection, schedule: Q04DX003 (ip), vehicle: saline",170 % of control
same,T/C,"dose: 6.4 mg/kg/injection, schedule: Q02DX005 (oral), vehicle: saline",179 % of control
same,T/C,"dose: 10.0 mg/kg/injection, schedule: Q02DX008 (oral), vehicle: other",205 % of control
same,T/C,"dose: 12.5 mg/kg/injection, schedule: Q04DX003 (ip), vehicle: saline",181 % of control
same,T/C,"dose: 12.5 mg/kg/injection, schedule: Q08DX002 (ip), vehicle: saline",150 % of control
same,T/C,"dose: 12.8 mg/kg/injection, schedule: Q02DX005 (oral), vehicle: saline",185 % of control
same,T/C,"dose: 15.0 mg/kg/injection, schedule: Q02DX008 (ip), vehicle: other",104 % of control
same,T/C,"dose: 15.0 mg/kg/injection, schedule: Q02DX008 (oral), vehicle: other",184 % of control
same,T/C,"dose: 20.0 mg/kg/injection, schedule: Q02DX008 (oral), vehicle: other",197 % of control
same,T/C,"dose: 25.0 mg/kg/injection, schedule: Q01DX001 (ip), vehicle: water",123 % of control
same,T/C,"dose: 25.0 mg/kg/injection, schedule: Q08DX002 (ip), vehicle: saline",151 % of control
same,T/C,"dose: 25.0 mg/kg/injection, schedule: Q## X003 (ip), vehicle: saline",167 % of control
same,T/C,"dose: 26.0 mg/kg/injection, schedule: Q02DX005 (oral), vehicle: saline",187 % of control
same,T/C,"dose: 50.0 mg/kg/injection, schedule: Q## X002 (ip), vehicle: saline",165 % of control
same,T/C,"dose: 50.0 mg/kg/injection, schedule: Q## X016 (ip), vehicle: saline",98 % of control
same,T/C,[1],156 % of control
same,T/C,"dose: 100.0 mg/kg/injection, schedule: Q## X002 (ip), vehicle: saline",168 % of control
same,T/C,"dose: 100.0 mg/kg/injection, schedule: Q## X003 (ip), vehicle: saline",92 % of control
same,T/C,"dose: 150.0 mg/kg/injection, schedule: Q01DX001 (ip), vehicle: water",159 % of control
same,T/C,[2],110 % of control
same,T/C,"dose: 200.0 mg/kg/injection, schedule: Q01DX001 (ip), vehicle: water",151 % of control
same,T/C,"dose: 200.0 mg/kg/injection, schedule: Q## X002 (ip), vehicle: saline",97 % of control
same,T/C,"dose: 400.0 mg/kg/injection, schedule: Q## X002 (ip), vehicle: saline",89 % of control
same,T/C,"dose: 25.0 micrograms/kg/injection, schedule: Q01DX010 (ip), vehicle: saline",98 % of control
same,T/C,"dose: 50.0 micrograms/kg/injection, schedule: Q01DX010 (ip), vehicle: saline",112 % of control
CC(=O)Nc1ccc(NC(=O)c2cccc(F)c2)cc1,T/C,"dose: 100.0 mg/kg/injection, schedule: Q01DX009 (ip), vehicle: Klucel (hydroxypropylcellulose) (HPC)",86 % of control
same,T/C,"dose: 200.0 mg/kg/injection, schedule: Q01DX009 (ip), vehicle: Klucel (hydroxypropylcellulose) (HPC)",102 % of control
same,T/C,"dose: 400.0 mg/kg/injection, schedule: Q01DX009 (ip), vehicle: Klucel (hydroxypropylcellulose) (HPC)",91 % of control
CN(C)c1ccc(-c2ccc(N(C)C)cc2)cc1,T/C,"dose: 50.0 mg/kg/injection, schedule: Q01DX001 (ip), vehicle: carboxymethylcellulose (CMC)",100 % of control
same,T/C,"dose: 100.0 mg/kg/injection, schedule: Q01DX001 (ip), vehicle: carboxymethylcellulose (CMC)",100 % of control
same,T/C,"dose: 200.0 mg/kg/injection, schedule: Q01DX001 (ip), vehicle: carboxymethylcellulose (CMC)",96 % of control
same,T/C,"dose: 400.0 mg/kg/injection, schedule: Q01DX001 (ip), vehicle: carboxymethylcellulose (CMC)",106 % of control
CC(=O)CSc1nc2nccnc2[nH]1,T/C,"dose: 25.0 mg/kg/injection, schedule: Q01DX009 (ip), vehicle: saline with Tween-80",110 % of control
same,T/C,"dose: 50.0 mg/kg/injection, schedule: Q01DX009 (ip), vehicle: saline with Tween-80",110 % of control
same,T/C,"dose: 100.0 mg/kg/injection, schedule: Q01DX009 (ip), vehicle: saline with Tween-80",104 % of control
same,T/C,"dose: 200.0 mg/kg/injection, schedule: Q01DX009 (ip), vehicle: saline with Tween-80",104 % of control
same,T/C,"dose: 400.0 mg/kg/injection, schedule: Q01DX009 (ip), vehicle: saline with Tween-80",107 % of control
CC1(C)N=C(N)N=C(N)N1c1cccc(Cc2ccccc2)c1,T/C,"dose: 25.0 mg/kg/injection, schedule: Q01DX001 (ip), vehicle: saline with Tween-80",92 % of control
same,T/C,"dose: 50.0 mg/kg/injection, schedule: Q01DX001 (ip), vehicle: saline with Tween-80",106 % of control
O=C(NCCCl)NCc1ccccc1,T/C,"dose: 100.0 mg/kg/injection, schedule: Q04DX003 (ip), vehicle: Klucel (hydroxypropylcellulose) (HPC)",103 % of control
same,T/C,"dose: 200.0 mg/kg/injection, schedule: Q04DX003 (ip), vehicle: Klucel (hydroxypropylcellulose) (HPC)",107 % of control
same,T/C,"dose: 400.0 mg/kg/injection, schedule: Q04DX003 (ip), vehicle: Klucel (hydroxypropylcellulose) (HPC)",113 % of control
CSc1nn(C)c2cc(C)c3ccccc3[n+]12,T/C,"dose: 5.0 mg/kg/injection, schedule: Q01DX001 (ip), vehicle: saline",108 % of control
same,T/C,"dose: 10.0 mg/kg/injection, schedule: Q01DX001 (ip), vehicle: saline",106 % of control
same,T/C,"dose: 20.0 mg/kg/injection, schedule: Q01DX001 (ip), vehicle: saline",103 % of control
same,T/C,"dose: 40.0 mg/kg/injection, schedule: Q01DX001 (ip), vehicle: saline",100 % of control
Cc1c(C=O)[nH]c(=O)[nH]c1=O,T/C,[1],90 % of control
same,T/C,[2],102 % of control
same,T/C,"dose: 400.0 mg/kg/injection, schedule: Q01DX001 (ip), vehicle: saline",96 % of control

# Source: PubChem BioAssay AID248 (DTP/NCI, 2004)
